Measurements reported in US8278296B2, “Manipulation of brain CDP-diacylglycerol and uses thereof” (priority 2006, dated 2012).
Entries after “also recorded” stand apart in the source; their conditions may differ.

Key:
CDP-diacylglycerol = assay: [3H]CDP-diacylglycerol accumulation in rat brain slices; assay type: cell-based; details: for effect on CDP-DG accumulation: MAOIs; for effect on CDP-diacylglycerol accumulation: rat cerebrocortical slices, 0.1-300 μM, other psychotropic compounds; for effect on [3H]CDP-diacylglycerol accumulation: rat hippocampal, prefrontal cortical and striatal slices, LiCl present; for effect on [3H]CDP-diacylglycerol accumulation / effect on CDP-DG production: 90 min; for effect on CDP-DG production: monoamine receptor agonists, frontal cortex or hippocampal tissues, 5 mM LiCl
[1] = system: phosphoinositide-specific phospholipase C / PI metabolism; assay: Blockade of PI hydrolysis (neomycin, U73122) on antidepressant-induced CDP-DG, PI and IP responses in brain slices; assay type: cell-based, rat; details: for sensitivity of drug effects to inhibition by U73122: compared with tricyclic agents
phosphatidylinositides = assay: [3H]inositol phospholipid (phosphatidylinositide) resynthesis in rat brain slices; assay type: cell-based; details: for effect on PI synthesis: monoamine receptor agonists, frontal cortex or hippocampal tissues, 5 mM LiCl; for effect on PI synthesis / effect on [3H]inositol labeling of PIs (phosphatidylinositide synthesis): 90 min; for effect on [3H]inositol labeling of PIs (phosphatidylinositide synthesis): hippocampus, frontal cortex, striatum slices
[2] = system: CDP-diacylglycerol/inositol phosphate; assay: CDP-DG/IP ratio calculated from brain slice data; assay type: cell-based, rat
Method: FIGS. 9A-9C are ratios of antidepressant-induced CDP-diacylglycerol versus inositol phosphates. The data in FIGS. 1A-1C, 2A-2B, 3A-3C, 4A-4B, and 5A-5C were recalculated by dividing the CDP-diacylglycerol effects of each concentration of each antidepressant agent by the corresponding effects of the agent on inositol phosphate accumulation to yield the CDP-diacylglycerol/inositol phosphate (CDP-DG/IP) ratios shown. […] Data for each agent were analyzed by One-Way ANOVA followed by posthoc Dunnett tests. ^#p<0.05; *p<0.01; compared to the respective control (zero drug concentration).
As used herein, the term “CDP-DG/IP ratio” refers to the relative value of an index which is the quotient of a level of cellular CDP-diacylglycerol divided by a level of inositol phosphate in a tissue or cell or tissue cultures thereof, e.g., a mammalian brain tissue or blood platelets, a human brain tissue or blood platelets, or other cells or tissues having the ability to metabolize CDP-diacylglycerol and phosphoinositides. Levels may be determined, but are not limited to, using molar concentration or a radiolabel.
To determine if antidepressant agents exert differential effects on CDP-DG production compared to PI hydrolysis, the ratios of CDP-DG production relative to the IPs (CDP-DG/IP ratio) in corresponding treatment conditions were examined.
Corresponding CDP-DG ratios were calculated as for the antidepressant agents. […] The ratios of CDP-DG production relative to IP accumulation are shown on the far right of the graphs in FIGS. 10A-10C and FIGS. 11A-11D.

inositol phosphates = assay: [3H]inositol phosphate accumulation in rat brain slices; assay type: cell-based; details: for effect on IP accumulation: monoamine receptor agonists, frontal cortex or hippocampal tissues, 5 mM LiCl, 90 min; for effect on accumulation of IPs: 3-300 μM, hippocampus, frontal cortex, striatum slices
rats = assay: Forced swim test; assay type: in vivo, rat; details: for effect on immobility times in forced swim test: modified regimen, i.p. at 3 h and 1 h before testing; for effect of neomycin pretreatment on immobility-reducing effects of antidepressant drugs: imipramine, fluoxetine, maprotiline
Method: One group of rats was acclimated once in the swim chamber and subgroups of three animals each were administered indicated doses (corresponding to 0, 3, 10, and 30 mg/kg) of imipramine at 24, 3, and 1 h before behavioral testing (conventional regimen). The other group of rats from the same batch was acclimated twice at 48 and 24 h before the time of testing and subgroups were administered the same doses of imipramine at 3 and 1 h before behavioral testing. Animals in each group were then tested in the forced swim apparatus for 5 min and the immobility times determined. […] Each bar is the mean±SEM (n=6). […] Animals were prepared as in FIG. 14 for the modified regimen. […] Test drugs were administered at indicated doses 3 and 1 h before behavioral testing. […] Immobility response data for set one were analyzed by one-way ANOVA (response by dose) in order to determine if the drug by itself produced significant effects. Data for set two were analyzed by one-way ANOVA (response by group, where group comprised control, neomycin, drug, neomycin+drug), followed by posthoc Tukey tests. […] The forced swim test (FST) was applied with some modifications. Rats were transferred to the testing room between 9:00-10:00 AM and allowed at least an hour before being placed individually into translucent polypropylene cylinders (46 cm tall×25 cm in diameter) containing 27 cm depth of water maintained at 25° C. […] After 15 min in the water, the rats were removed, toweled, and allowed to dry in a warm environment before being returned to their home cage. This acclimation step was repeated after 24 h, with the exposure time reduced from 15 to 5 min. […] During the second acclimation exposure, the duration of immobility was recorded for each animal. […] To adjudge that a rat had become immobile, the animal had to float passively in the water in a slightly hunched, but upright position, making only minimal movements necessary to keep its head above the water (65-66). On the third day when animals were to undergo experimental assessment, saline or the indicated antidepressant agents were administered i.p. at 3 h and at 1 h before behavioral testing. The drugs were dissolved in distilled-deionized water and diluted in saline. Control subjects received 0.9% saline. […] Data were analyzed by one-way analysis of variance (ANOVA).

5HT2 receptor [3] = assay: α-methylserotonin-stimulated IP accumulation in tissues prelabeled with [3H]inositol in presence of antidepressants; assay type: cell-based, rat
5HT2 receptor [4] = system: 5HT2 receptor
Method: Hippocampal slices were incubated with either [^3H]inositol (FIGS. 13A-13B) or [^3H]cytidine (FIG. 13C) for 30 min, followed by addition of indicated concentrations of LY53857 (6-methyl-1-(1-methylethyl)-ergoline-8β-carboxylic acid 2-hydroxy-1-methylpropyl ester maleate). […] After 60 min, tritiated inositol phosphate, inositol phospholipids, or CDP-diacylglycerol were assayed. Each bar is the mean±SEM (n=6). Data for each analyte were normalized across experiments and test drugs and then were analyzed for each drug by One-Way ANOVA of responses measured at the four concentration conditions of LY53857 (0, 0.1, 1, 10 μM). The ANOVAs were followed with Dunnett tests comparing the response in the presence of each concentration of LY53857 to the control effect of the antidepressant alone.
To examine the extent to which the enhancing effects of antidepressant agents on inositol phosphate accumulation were dependent on postsynaptic 5HT2 receptor stimulation, each antidepressant was challenged with a range of concentrations of the 5HT2 receptor-selective antagonist, LY53857 (71-72). The antagonist was added after the prelabeling phase, but 15 min prior to the addition of α-methylserotonin to the incubating slices.

[5] = monoamine receptor agonists, frontal cortex or hippocampal tissues
[6] = hippocampal slices, 0.1, 1, 10 μM

## [Cl-].[Li+] [LiCl, lithium chloride]
CDP-diacylglycerol; 5 mM LiCl present or absent, fluoxetine or imipramine, frontal cortex or hippocampus, 60 min
  effect on antidepressant drug-induced [3H]CDP-diacylglycerol production: did not significantly enhance or inhibit; also recorded: did not significantly alter

## N[C@@H]1C[C@H]1c1ccccc1 (racemic) [tranylcypromine]
CDP-diacylglycerol; frontal cortex slices
  effect on CDP-DG accumulation: statistically significant but modest effects

## COc1ccc2c(c1)CC[C@@H]1[C@@H]2CC[C@]2(C)[C@@H](NCCCCCCN3C(=O)CCC3=O)CC[C@@H]12 [U73123]
[1]; inactive analog control, data not shown
  effect on CDP-DG or IP responses: without effect

## CCN(CC)CCCC(C)Nc1c2ccc(Cl)cc2nc2ccc(OC)cc12 (stereo not drawn) [quinacrine]
CDP-diacylglycerol
  effect on CDP-diacylglycerol accumulation: No significant effects or concentration-related effects

## NNCCc1ccccc1 [phenelzine]
CDP-diacylglycerol; frontal cortex slices, Dunnett's
  concentration at which CDP-DG effects achieved significance: 1 µM
CDP-diacylglycerol; frontal cortex slices
  effect on CDP-DG accumulation: robust effects
phosphatidylinositides; rat cortical slices, MAOIs
  effect on [3H]inositol phospholipid synthesis (PI resynthesis): significant and concentration-dependent increases
[2]; antidepressant agents, increasing drug concentrations, hippocampus, similar in cortical tissues
  CDP-DG/IP ratio: increased significantly

## CN1Cc2c(N)cccc2C(c2ccccc2)C1 (stereo not drawn) [nomifensine]
CDP-diacylglycerol
  effect on [3H]CDP-diacylglycerol accumulation: significantly and dose-dependently enhanced

## Oc1cc2c(cc1O)C(c1ccccc1)CNCC2 (racemic) [SKF38393, (+/−)-1-phenyl-2,3,4,5-tetrahydro-(1H)-3-benzazepine-7,8-diol]
CDP-diacylglycerol
  effect on CDP-DG production: significantly increased
phosphatidylinositides
  effect on PI synthesis: significantly enhanced
Inositol phosphates
  effect on IP accumulation: significantly increased
[2]; [5]
  CDP-DG/IP ratio: increased CDP-DG/IP ratios significantly
[2]; prefrontal cortical slices
  ratio of CDP-DG relative to PIs (CDP-DG/PI ratio): significantly enhanced
  ratio of CDP-DG relative to both inositol derivatives (CDP-DG/IP&PI): significantly enhanced
rats
  effect on immobility times in forced swim test: significantly decreased immobility times

## CN(C)CCCN1c2ccccc2Sc2ccc(Cl)cc21 [chloropromazine]
CDP-diacylglycerol
  effect on CDP-diacylglycerol accumulation: No significant effects or concentration-related effects

## CNCCC(Oc1ccc(C(F)(F)F)cc1)c1ccccc1 (stereo not drawn) [fluoxetine]
CDP-diacylglycerol
  effect on [3H]CDP-diacylglycerol accumulation: significantly and dose-dependently enhanced
phosphatidylinositides
  effect on [3H]inositol labeling of PIs (phosphatidylinositide synthesis): significantly increased
Inositol phosphates
  effect on accumulation of IPs: significantly and dose-dependently stimulated
rats
  effect on immobility times in forced swim test: significant and dose-dependent reductions
[1]
  sensitivity of drug effects to inhibition by U73122: more sensitive

## CN(C)CCCN1c2ccccc2CCc2ccccc21 [imipramine]
CDP-diacylglycerol
  effect on [3H]CDP-diacylglycerol accumulation: significantly and dose-dependently enhanced
CDP-diacylglycerol; striatum slices, posthoc Dunnett test
  lowest concentration with statistically significant CDP-diacylglycerol response: 30 µM
phosphatidylinositides
  effect on [3H]inositol labeling of PIs (phosphatidylinositide synthesis): significantly increased
Inositol phosphates
  effect on accumulation of IPs: significantly and dose-dependently stimulated
5HT2 receptor [3]; frontal cortex tissues
  enhancement of α-methylserotonin effects on IP by prelabeling with antidepressant: concentration-dependently enhanced
5HT2 receptor [3]; hippocampus, frontal cortex, striatum
  enhancement of α-Me5HT-induced IP accumulation by prelabeling in presence of antidepressant: significantly enhanced
5HT2 receptor [3]; striatal tissues
  enhancement of α-methylserotonin effects on IP by prelabeling with antidepressant: not significantly enhanced
rats; conventional and modified regimens, 0, 3, 10, 30 mg/kg
  effect on immobility behavior in forced swim test: significant dose-related effects; also recorded: significant and dose-related
rats
  effect on immobility times in forced swim test: significant and dose-dependent reductions
5HT2 receptor [4]; hippocampus, similar in frontal cortex
  inhibition by 5HT2 receptor blockade (LY53857) of the drug's PI labeling / phosphatidylinositol resynthesis effect: only partially, though significantly, reduced

## CNCCCC12CCC(c3ccccc31)c1ccccc12 [maprotiline]
CDP-diacylglycerol
  effect on [3H]CDP-diacylglycerol accumulation: significantly and dose-dependently enhanced
phosphatidylinositides
  effect on [3H]inositol labeling of PIs (phosphatidylinositide synthesis): significantly increased
Inositol phosphates
  effect on accumulation of IPs: significantly and dose-dependently stimulated
rats
  effect on immobility times in forced swim test: significant and dose-dependent reductions

## O=C(CCCN1CCC(O)(c2ccc(Cl)cc2)CC1)c1ccc(F)cc1 [haloperidol]
CDP-diacylglycerol
  effect on CDP-diacylglycerol accumulation: No significant effects or concentration-related effects

## C[N+](C)(C)CCOC(N)=O [carbachol]
CDP-diacylglycerol
  effect on CDP-DG production: significantly increased
phosphatidylinositides
  effect on PI synthesis: failed to increase
Inositol phosphates
  effect on IP accumulation: significantly increased
[2]; [5]
  CDP-DG/IP ratio: dramatic decrease

## OCCN1CCN(CC/C=C2/c3ccccc3Sc3ccc(C(F)(F)F)cc32)CC1 [flupenthioxol]
CDP-diacylglycerol
  effect on CDP-diacylglycerol accumulation: No significant effects or concentration-related effects

## C#CCN(C)[C@H](C)Cc1ccccc1 [selegiline]
CDP-diacylglycerol
  effect on CDP-diacylglycerol accumulation: No significant effects or concentration-related effects

## COc1ccc2c(c1)CC[C@@H]1[C@@H]2CC[C@]2(C)[C@@H](NCCCCCCN3C(=O)C=CC3=O)CC[C@@H]12 [U73122]
[1]; 100 μM fluoxetine or 300 μM imipramine, paroxetine, maprotiline, nomifensine, hippocampal or cortical slices
  inhibition of antidepressant-stimulated IP accumulation: completely blocked
[1]; 0.1 to 10 μM U73122, cortical or hippocampal slices
  inhibition of antidepressant drug effects on CDP-DG production: significantly reduced, but was unable to completely block; also recorded: only partially reduced
[1]; U73122 alone
  effect of inhibitor by itself on basal CDP-DG production: did not significantly alter; also recorded: no significant effect
  effect of inhibitor by itself on basal IP accumulation: did not significantly alter; also recorded: no significant effect
[1]; brain slices
  inhibition of SKF38393-induced IP accumulation: blocked

## O=C1CN=C(c2ccccc2)c2cc([N+](=O)[O-])ccc2N1 [nitrazepam]
CDP-diacylglycerol
  effect on CDP-diacylglycerol accumulation: No significant effects or concentration-related effects

## neomycin
rats; iv 2 h prior to testing
  effect of neomycin on SKF38393-induced decrease of immobility times: blocked
  effect of neomycin pretreatment on immobility-reducing effects of antidepressant drugs: completely reversed
rats; iv 2 h prior to testing, listed as Neomycin
  effect of neomycin pretreatment on immobility-reducing effects of antidepressant drugs: abolished
rats; iv tail vein 2 h prior to testing
  effect of neomycin by itself on basal immobility times: did not significantly alter

## Fc1ccc([C@@H]2CCNC[C@H]2COc2ccc3c(c2)OCO3)cc1 [paroxetine]
[1]
  sensitivity of drug effects to inhibition by U73122: more sensitive

## CN1[C@@H]2CC[C@H]1C[C@@H](OC(c1ccccc1)c1ccccc1)C2 [benztropine]
CDP-diacylglycerol
  effect on CDP-diacylglycerol accumulation: No significant effects or concentration-related effects

## C#CCN(C)Cc1ccccc1 [pargyline]
CDP-diacylglycerol
  effect on CDP-diacylglycerol accumulation: No significant effects or concentration-related effects

## O=C1NC(=O)C(c2ccccc2)(c2ccccc2)N1 [phenytoin]
CDP-diacylglycerol
  effect on CDP-diacylglycerol accumulation: No significant effects or concentration-related effects

## NO [hydroxylamine]
CDP-diacylglycerol
  effect on CDP-diacylglycerol accumulation: No significant effects or concentration-related effects

## CN1C(=O)CN=C(c2ccccc2)c2cc(Cl)ccc21 [diazepam]
CDP-diacylglycerol
  effect on CDP-diacylglycerol accumulation: No significant effects or concentration-related effects

## CCN1CCCC1CNC(=O)c1cc(S(N)(=O)=O)ccc1OC (stereo not drawn) [sulpiride]
CDP-diacylglycerol
  effect on CDP-diacylglycerol accumulation: No significant effects or concentration-related effects

## CC(O)C(C)OC(=O)[C@@H]1C[C@@H]2c3cccc4c3c(cn4C(C)C)C[C@H]2N(C)C1.O=C(O)/C=C\C(=O)O (stereo partly drawn) [LY53857, 6-methyl-1-(1-methylethyl)-ergoline-8β-carboxylic acid 2-hydroxy-1-methylpropyl ester maleate]
5HT2 receptor [4]; 0.1 μM, hippocampal slices
  increase of basal CDP-diacylglycerol: 20%
5HT2 receptor [4]; hippocampal slices, 300 μM imipramine, desipramine, paroxetine, maprotiline or 100 μM fluoxetine
  inhibition of IP responses to antidepressant agents: completely blocked
5HT2 receptor [4]; [6]
  effect on basal levels of IPs: did not significantly alter
  effect on basal levels of PIs: did not significantly alter
5HT2 receptor [4]; hippocampal slices, all drugs
  inhibition of antidepressant-induced CDP-diacylglycerol responses: statistically significantly inhibited
  inhibition of antidepressant-induced PI labeling: statistically significantly inhibited
